Laboratory results from patent publication US11918582B2 (RAPT Therapeutics, Inc., priority 2021, dated 2024).
Where a name gives a salt, the structure may show the parent alone.

Target: T1, human HPK1 (MAP4K1) (Homo sapiens, UniProt Q92918)
T1 construct: Recombinant human HPK1 kinase domain was obtained from ThermoFisher (Cat. #PV6357) and SignalChem (Cat. #M23-11G); purchased ThermoFisher; SignalChem PV6357; M23-11G
T1 sequence (Q92918 17-274 limits assumed): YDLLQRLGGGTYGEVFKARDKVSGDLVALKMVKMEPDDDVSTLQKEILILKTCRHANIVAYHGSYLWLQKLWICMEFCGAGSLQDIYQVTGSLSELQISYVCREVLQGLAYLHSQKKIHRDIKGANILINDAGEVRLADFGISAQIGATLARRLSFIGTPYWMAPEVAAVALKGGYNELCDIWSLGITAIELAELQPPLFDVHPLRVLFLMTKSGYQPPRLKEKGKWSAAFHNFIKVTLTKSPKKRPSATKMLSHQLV
Test: Biochemical assay for activity against HPK1 (ADP-Glo, MBP substrate)
Conditions: recombinant human HPK1 kinase domain, 1 nM enzyme, ADP-Glo luminescence
Text: These compounds are made by the synthetic methods described earlier herein. Example 227 Biochemical Assay for Testing Compounds for Activity against HPK1
The enzymatic activity of human HPK1 (MAP4K1) was monitored in a biochemical assay in the presence or absence of compounds, using a peptide substrate (myelin basic protein, MBP), with an ADP-Glo assay kit (Promega, Cat. #V9103). An increase in phosphorylation of the peptide by HPK1 was indicative of its kinase activity.
Recombinant human HPK1 kinase domain was obtained from ThermoFisher (Cat. #PV6357) and SignalChem (Cat. #M23-11G). A 1 nM HPK1 kinase enzyme solution was prepared from the HPK1 stock received from the commercial supplier using an assay buffer containing 50 mM HEPES (4-(2-hydroxyethyl)-1-piperazineethanesulfonic acid) pH 7.5 (Fisher Scientific, Cat. #H1035), 150 mM NaCl (Fisher Scientific, Cat. #50843067), 3 mM TCEP-HCl (Tris(2-carboxyethyl)phosphine hydrochloride; Fisher Scientific, Cat. #PIPG82080), 10 mM MgCl2 (Fisher Scientific, Cat. #AM9530G), 0.005% Tween-20 (Fisher Scientific, Cat. #BP337500) and 0.01% BSA (bovine serum albumin; ThermoFisher, Cat. #15260037), in ultra-pure water. The final concentration of the assay buffer was 770 nM. A 5 mM stock solution of the peptide substrate was prepared using […] MBP (Myelin Basic Protein, Active Motif, Cat. #31314), 10 mM ATP (adenosine 5′-triphosphate; Sigma-Aldrich, Cat. #GE27-2056-01) and of assay buffer.
Test compounds were dissolved in DMSO (dimethyl sulfoxide) at 10 mM and then serial dilutions were prepared using a ViaFlow assist multichannel dispenser (Integra ViaFlo). 20 nL of test compounds at various concentrations were dispensed into a 1536-well assay plate (Corning Cat. #7247) using an Echo Nanoliter dispenser (Labcyte ECHO 550). […] of a 1 nM solution of HPK1 kinase enzyme diluted in assay buffer was added to the compound-containing plate using a Mantis Microliter dispenser (Formulatrix Mantis), covered with a lid, and incubated for 15 minutes at room temperature. 50 nL of a 5 mM stock solution of the peptide substrate (MBP) were added using the Echo Nanoliter dispenser. The plate was covered with a lid, centrifugated at 500 rpm for 1 minute and incubated for 2 hours at room temperature. […] of ADP-Glo reagent A was added using the Mantis Microliter dispenser, centrifugated at 500 rpm for 30 seconds and incubated for 40 minutes at room temperature. […] of ADP-Glo reagent B was added using the Mantis Microliter dispenser, centrifugated at 500 rpm for 30 seconds and incubated for 30 minutes at room temperature. Peptide phosphorylation was measured by luminescence on an Envision plate reader (PerkinElmer).
The HPK1 biochemical IC50 activity levels of the compounds of Examples 1-225 were tested using this assay and are shown in Table 2.

| Compound | IC50 |
| --- | --- |
| COc1cc2c(cc1Nc1ncc3cnn(CC4CCCCO4)c3n1)CN(C)CC2 (racemic) [Example 201, (S)-6-methoxy-2-methyl-N-(1-((tetrahydro-2H-pyran-2-yl)methyl)-1H-pyrazolo[3,4-d]pyrimidin-6-yl)-1,2,3,4-tetrahydroisoquinolin-7-amine and (R)-6-methoxy-2-methyl-N-(1-((tetrahydro-2H-pyran-2-ylmethyl)-1H-pyrazolo[3,4-d]pyrimidin-6-yl)-1,2,3,4-tetrahydroisoquinolin-7-amine Hydrochloride, Racemic Mixture] | < 100 nM |
| COc1cc2c(cc1Nc1ncc3cnn(C[C@H]4C[C@H]4C)c3n1)CN(C)CC2 (racemic) [Example 202, 6-methoxy-2-methyl-N-(1-((cis-2-methylcyclopropyl)methyl)-1H-pyrazolo[3,4-d]pyrimidin-6-yl)-1,2,3,4-tetrahydroisoquinolin-7-amine, Trifluoroacetate Salt] | < 100 nM |
| COc1cc2c(cc1Nc1ncc3cnn(C[C@@H]4C[C@@H]4F)c3n1)CN(C)CC2 (racemic) [Example 207, N-(1-(((cis)-2-fluorocyclopropyl)methyl)-1H-pyrazolo[3,4-d]pyrimidin-6-yl)-6-methoxy-2-methyl-1,2,3,4-tetrahydroisoquinolin-7-amine] | < 100 nM |
| COc1cc2c(cc1Nc1ncc3cnn(C[C@@H]4[C@@H](C)CCN4C(C)=O)c3n1)CN(C)CC2 (racemic) [Example 214, 1-[2-[[6-[(6-methoxy-2-methyl-3,4-dihydro-1H-isoquinolin-7-yl)amino]pyrazolo[3,4-d]pyrimidin-1-yl]methyl]-3-methyl-pyrrolidin-1-yl]ethenone] | < 100 nM |
| CCOC(=O)[C@@H]1CCC[C@H](n2ncc3cnc(Nc4cc5c(cc4OC)CCN(C)C5)nc32)C1 (relative stereo) [Example 21, ethyl cis-3-(6-((6-methoxy-2-methyl-1,2,3,4-tetrahydroisoquinolin-7-yl)amino)-1H-pyrazolo[3,4-d]pyrimidin-1-yl)cyclohexane-1-carboxylate] | < 100 nM |
| COc1cc2c(cc1Nc1ncc3cnn([C@@H]4CCC[C@H](CO)C4)c3n1)CN(C)CC2 (relative stereo) [Example 22, cis-3-(6-((6-methoxy-2-methyl-1,2,3,4-tetrahydroisoquinolin-7-yl)amino)-1H-pyrazolo[3,4-d]pyrimidin-1-ylcyclohexyl)methanol] | < 100 nM |
| COc1cc2c(cc1Nc1ncc3cnn([C@H]4CCC[C@@H](O)C4)c3n1)CN(C)CC2 (relative stereo) [Example 23, cis-3-(6-((6-methoxy-2-methyl-1,2,3,4-tetrahydroisoquinolin-7-yl)amino)-1H-pyrazolo[3,4-d]pyrimidin-1-yl)cyclohexan-1-ol] | < 100 nM |
| COc1cc2c(cc1Nc1ncc3cnn([C@@H]4CC[C@H](CO)C4)c3n1)CN(C)CC2 (relative stereo) [Example 24] | < 100 nM |
| COc1cc2c(cc1Nc1ncc3c(C)nn([C@H]4CC[C@@H](O)C4)c3n1)CN(C)CC2 (relative stereo) [Example 149, (rel-1S,3R)-3-(6-((6-methoxy-2-methyl-1,2,3,4-tetrahydroisoquinolin-7-yl)amino)-3-methyl-1H-pyrazolo[3,4-d]pyrimidin-1-yl)cyclopentan-1-ol] | < 100 nM |
| COc1cc2c(cc1Nc1ncc3cnn([C@@H]4C[C@@H]5C[C@H]4N(C(C)=O)C5)c3n1)CN(C)CC2 (relative stereo) [Example 193, rel-1-((1R,4S,6R)-6-(6-((6-methoxy-2-methyl-1,2,3,4-tetrahydroisoquinolin-7-yl)amino)-1H-pyrazolo[3,4-d]pyrimidin-1-yl]-2-azabicyclo[2.2.1]heptan-2-yl)ethan-1-one] | < 100 nM |
| COc1cc2c(cc1Nc1ncc3cnn(C[C@H]4C[C@H]4CO)c3n1)CN(C)CC2 (relative stereo) [Example 205, (cis-2-((6-((6-methoxy-2-methyl-1,2,3,4-tetrahydroisoquinolin-7-yl)amino)-1H-pyrazolo[3,4-d]pyrimidin-1-yl)methyl)cyclopropyl)methanol] | < 100 nM |
| COc1cc2c(cc1Nc1ncc3cnn(C[C@H]4[C@H](C)CCN4C(C)=O)c3n1)CN(C)CC2 (single isomer, unassigned) [Example 147] | 100 to 250 nM |
| COc1cc2c(cc1Nc1ncc3cnn(C[C@@H]4[C@@H](C)CCN4C(C)=O)c3n1)CN(C)CC2 (single isomer, unassigned) [Example 148] | < 100 nM |
| COc1cc2c(cc1Nc1ncc3cnn([C@H]4CCC[C@H](C(N)=O)C4)c3n1)CN(C)CC2 (stereo in doubt) [Example 40, (1S,3S)-3-(6-((6-methoxy-2-methyl-1,2,3,4-tetrahydroisoquinolin-7-yl)amino)-1H-pyrazolo[3,4-d]pyrimidin-1-yl)cyclohexane-1-carboxamide] | < 100 nM |
| COc1cc2c(cc1Nc1ncc3cnn(C4CCC(CO)CC4)c3n1)CN(C)CC2 (stereo in doubt) [Example 64, cis-[4-[6-[(6-methoxy-2-methyl-3,4-dihydro-1H-isoquinolin-7-yl)amino]pyrazolo[3,4-d]pyrimidin-1-yl]cyclohexyl]methanol] | < 100 nM |
| CN1CCc2ccc(Nc3ncc4cnn(C5COC5)c4n3)cc2C1 [Example 1, 2-methyl-N-(1-(oxetan-3-yl)-1H-pyrazolo[3,4-d]pyrimidin-6-yl)-1,2,3,4-tetrahydroisoquinolin-7-amine] | < 100 nM |
| Cc1nn(C2COC2)c2nc(Nc3ccc4c(c3)CN(C)CC4)ncc12 [Example 2, 2-methyl-N-[3-methyl-1-(oxetan-3-yl)pyrazolo[3,4-d]pyrimidin-6-yl]-3,4-dihydro-1H-isoquinolin-7-amine] | < 100 nM |
| COc1cc2c(cc1Nc1ncc3c(C)nn(C4COC4)c3n1)CN(C)CC2 [Example 3, 6-methoxy-2-methyl-N-[3-methyl-1-(oxetan-3-yl)pyrazolo[3,4-d]pyrimidin-6-yl]-3,4-dihydro-1H-isoquinolin-7-amine] | < 100 nM |
| CN1CCc2ccc(Nc3ncc4cnn(CCN5CCCS5(=O)=O)c4n3)cc2C1 [Example 4, N-[1-[2-(1,1-dioxo-1,2-thiazolidin-2-yl)ethyl]pyrazolo[3,4-d]pyrimidin-6-yl]-2-methyl-3,4-dihydro-1H-isoquinolin-7-amine trifluoroacetate] | < 100 nM |
| CN1CCc2ccc(Nc3ncc4cnn(C)c4n3)cc2C1 [Example 5, 2-methyl-N-(1-methylpyrazolo[3,4-d]pyrimidin-6-yl)-3,4-dihydro-1H-isoquinolin-7-amine] | < 100 nM |
| CC(C)n1nc(C(F)(F)F)c2cnc(Nc3ccc4c(c3)CN(C)CC4)nc21 [Example 6, N-[1-isopropyl-3-(trifluoromethyl)pyrazolo[3,4-d]pyrimidin-6-yl]-2-methyl-3,4-dihydro-1H-isoquinolin-7-amine] | < 100 nM |
| COc1cc2c(cc1Nc1ncc3c(C(F)(F)F)nn(C(C)C)c3n1)CN(C)CC2 [Example 7, N-(1-isopropyl-3-(trifluoromethyl)-1H-pyrazolo[3,4-d]pyrimidin-6-yl)-6-methoxy-2-methyl-1,2,3,4-tetrahydroisoquinolin-7-amine] | < 100 nM |
| CCOC(=O)CCCn1ncc2cnc(Nc3ccc4c(c3)CN(C)CC4)nc21 [Example 8, Ethyl 4-(6-((2-methyl-1,2,3,4-tetrahydroisoquinolin-7-yl)amino)-1H-pyrazolo[3,4-d]pyrimidin-1-yl)butanoate] | < 100 nM |
